Source: ChEMBL document CHEMBL1201862, “PubChem BioAssay data set” (2004)
Activity calls are given as the source filed them.

Key:
Cytochrome P450 2C9 [1] = biological target: T1, Cytochrome P450 2C9 (Homo sapiens, UniProt P11712); details: Potency
[2] = biological target: Melanin-concentrating hormone receptor 1 (Homo sapiens, UniProt Q99705); experiment: Fluorescence-based counterscreen for antagonists of the G-protein coupled receptor 7 (GPR7): cell-based high throughput dose response assay to identify antagonists of the melanin-concentrating hormone receptor 1 (MCHR1).; type: functional
[3] = biological target: T2, Corticotropin-releasing factor receptor 2/Corticotropin-releasing factor-binding protein (Homo sapiens, UniProt P24387+Q13324); experiment: activators of CRF receptor 2 with binding protein – uHTS hits, confirmation (AID 602473); type: functional; details: read-out: EC50_Mean
T2 sequence (Q13324 whole entry): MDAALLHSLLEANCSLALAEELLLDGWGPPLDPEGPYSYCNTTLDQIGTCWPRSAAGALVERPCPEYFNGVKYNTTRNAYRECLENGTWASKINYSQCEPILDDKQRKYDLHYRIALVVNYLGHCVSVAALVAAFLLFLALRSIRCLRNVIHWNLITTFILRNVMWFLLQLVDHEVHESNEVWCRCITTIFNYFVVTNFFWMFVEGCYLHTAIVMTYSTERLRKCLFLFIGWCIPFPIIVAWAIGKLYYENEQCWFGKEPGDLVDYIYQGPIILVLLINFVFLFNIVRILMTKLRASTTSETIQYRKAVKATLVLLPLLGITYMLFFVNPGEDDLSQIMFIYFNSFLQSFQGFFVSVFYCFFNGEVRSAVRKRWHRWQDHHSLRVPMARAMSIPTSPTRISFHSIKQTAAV
T2 sequence (P24387 whole entry): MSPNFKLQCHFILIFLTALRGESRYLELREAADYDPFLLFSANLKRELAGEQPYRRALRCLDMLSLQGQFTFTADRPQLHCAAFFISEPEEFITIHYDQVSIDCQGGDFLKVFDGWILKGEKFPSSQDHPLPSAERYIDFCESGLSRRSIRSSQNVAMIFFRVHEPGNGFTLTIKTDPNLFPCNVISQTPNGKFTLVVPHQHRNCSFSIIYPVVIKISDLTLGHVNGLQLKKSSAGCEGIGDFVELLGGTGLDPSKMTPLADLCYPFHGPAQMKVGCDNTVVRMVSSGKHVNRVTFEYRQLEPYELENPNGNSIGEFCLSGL

[4] = biological target: T3, Neuropeptides B/W receptor type 1 (Homo sapiens, UniProt P48145); experiment: Fluorescence-based dose response cell-based high throughput screening assay to identify antagonists of the G-protein coupled receptor 7 (GPR7). [Related pubchem assays: 1952 (Screening assay (GPR7 antagonists).), 1880 (Summary AID.)]; type: functional
T3 sequence (P48145 whole entry): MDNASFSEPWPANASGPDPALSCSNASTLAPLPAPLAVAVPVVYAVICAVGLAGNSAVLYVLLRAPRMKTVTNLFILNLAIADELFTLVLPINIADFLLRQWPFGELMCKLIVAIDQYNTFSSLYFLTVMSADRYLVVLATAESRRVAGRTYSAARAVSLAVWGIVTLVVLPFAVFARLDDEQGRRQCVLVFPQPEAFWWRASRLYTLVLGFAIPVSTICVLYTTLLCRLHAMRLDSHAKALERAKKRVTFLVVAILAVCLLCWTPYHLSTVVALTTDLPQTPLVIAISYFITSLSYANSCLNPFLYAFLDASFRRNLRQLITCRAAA

Cytochrome P450 2C9 [5] = biological target: T1, Cytochrome P450 2C9
[6] = biological target: T4, Alkaline phosphatase, tissue-nonspecific isozyme (Homo sapiens, UniProt P05186)
T4 sequence (P05186 whole entry): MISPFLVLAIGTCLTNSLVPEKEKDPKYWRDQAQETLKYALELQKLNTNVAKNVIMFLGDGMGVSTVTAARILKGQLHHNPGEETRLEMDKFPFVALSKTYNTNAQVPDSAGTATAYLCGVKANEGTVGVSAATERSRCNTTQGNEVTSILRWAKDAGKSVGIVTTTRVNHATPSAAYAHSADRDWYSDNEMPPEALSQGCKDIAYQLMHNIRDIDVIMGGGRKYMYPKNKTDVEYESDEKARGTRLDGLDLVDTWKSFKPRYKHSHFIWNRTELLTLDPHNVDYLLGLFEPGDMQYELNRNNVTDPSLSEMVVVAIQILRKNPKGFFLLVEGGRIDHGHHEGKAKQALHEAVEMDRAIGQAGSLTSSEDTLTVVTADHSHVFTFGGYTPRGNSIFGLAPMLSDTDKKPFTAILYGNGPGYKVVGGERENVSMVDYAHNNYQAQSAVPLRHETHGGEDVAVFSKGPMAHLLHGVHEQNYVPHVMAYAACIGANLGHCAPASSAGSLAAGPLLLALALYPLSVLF

Cytochrome P450 2D6 [7] = biological target: T5, Cytochrome P450 2D6 (Homo sapiens, UniProt P10635)
Cytochrome P450 2D6 [8] = biological target: T5, Cytochrome P450 2D6; experiment: qHTS Assay for Inhibitors and Substrates of Cytochrome P450 2D6. [Related pubchem assays: 410 ]; type: ADME; details: read-out: Potency

T1 sequence (P11712 whole entry): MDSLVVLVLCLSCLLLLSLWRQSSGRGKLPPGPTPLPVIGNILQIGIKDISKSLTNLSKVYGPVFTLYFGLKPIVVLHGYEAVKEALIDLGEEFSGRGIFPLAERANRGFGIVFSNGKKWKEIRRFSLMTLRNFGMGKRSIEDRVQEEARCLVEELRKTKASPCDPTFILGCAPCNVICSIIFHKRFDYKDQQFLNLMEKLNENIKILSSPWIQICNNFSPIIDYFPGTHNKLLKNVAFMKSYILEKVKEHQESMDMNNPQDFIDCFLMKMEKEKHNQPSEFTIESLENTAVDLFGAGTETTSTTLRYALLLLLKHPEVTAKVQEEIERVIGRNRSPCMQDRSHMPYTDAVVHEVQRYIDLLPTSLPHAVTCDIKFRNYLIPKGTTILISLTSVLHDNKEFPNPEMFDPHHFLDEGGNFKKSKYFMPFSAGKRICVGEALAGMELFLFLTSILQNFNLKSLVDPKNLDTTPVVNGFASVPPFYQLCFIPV
T5 sequence (P10635 whole entry): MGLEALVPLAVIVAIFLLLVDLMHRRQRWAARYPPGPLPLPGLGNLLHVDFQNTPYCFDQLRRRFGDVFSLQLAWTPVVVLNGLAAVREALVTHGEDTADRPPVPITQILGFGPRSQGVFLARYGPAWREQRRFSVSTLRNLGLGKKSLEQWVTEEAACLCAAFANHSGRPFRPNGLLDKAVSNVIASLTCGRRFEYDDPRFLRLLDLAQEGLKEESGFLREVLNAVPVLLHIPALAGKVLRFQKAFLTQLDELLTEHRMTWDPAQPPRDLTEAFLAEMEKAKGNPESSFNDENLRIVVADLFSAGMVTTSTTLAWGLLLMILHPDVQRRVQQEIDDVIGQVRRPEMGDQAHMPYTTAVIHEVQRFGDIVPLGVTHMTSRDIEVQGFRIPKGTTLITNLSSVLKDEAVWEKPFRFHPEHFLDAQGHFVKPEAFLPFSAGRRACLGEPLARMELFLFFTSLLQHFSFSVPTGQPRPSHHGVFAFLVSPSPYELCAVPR
Sequence of Melanin-concentrating hormone receptor 1 (Q99705 whole entry): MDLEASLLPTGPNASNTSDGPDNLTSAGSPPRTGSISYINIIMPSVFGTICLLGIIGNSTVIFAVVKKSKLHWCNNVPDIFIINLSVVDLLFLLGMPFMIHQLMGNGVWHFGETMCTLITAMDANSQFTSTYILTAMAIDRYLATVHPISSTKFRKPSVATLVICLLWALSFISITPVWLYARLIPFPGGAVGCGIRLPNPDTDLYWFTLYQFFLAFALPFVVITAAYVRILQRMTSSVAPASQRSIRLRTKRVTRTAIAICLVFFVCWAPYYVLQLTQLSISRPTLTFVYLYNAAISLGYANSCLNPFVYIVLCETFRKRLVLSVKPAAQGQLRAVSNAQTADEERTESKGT

**Q.** For `CCC[C@@H]1O[C@@H]2C[C@@H]3[C@@H]4CCC5=CC(=O)C=C[C@@]5(C)[C@H]4[C@H](O)C[C@@]3(C)[C@@]2(C(=O)CO)O1`, which AC50 (Cytochrome P450 2C9 [1]) is on record?
**A.** 25.1 µM (inconclusive)

**Q.** How did the IC50 [2] turn out when `Cc1cccc(NC(=S)NC(=O)Cc2ccccc2)c1C` was run?
**A.** 13.3 µM (not active)

**Q.** What about the EC50 [3] of the same compound?
**A.** 9.75 µM (active)

**Q.** What about the IC50 [4] of the same compound?
**A.** 6.65 µM (active)

**Q.** How did the AC50 (Cytochrome P450 2C9 [5]) turn out when `CCN=C(S)NNC(=O)CCn1c2ccccc2c2ccccc21` was run?
**A.** inconclusive

**Q.** What about the EC50 [6] of the same compound?
**A.** > 100 µM (not active)

**Q.** And the AC50 (Cytochrome P450 2D6 [7])?
**A.** 14.1 µM (inconclusive)

**Q.** How did the AC50 (Cytochrome P450 2D6 [8]) turn out when `O=c1cc(-c2ccccc2O)oc2cc(O)cc(O)c12` was run?
**A.** 25.1 µM (inconclusive)
